According to patent US5866380A, “Methods for bioconversion of ferulic acid to vanillic acid or vanillin and for the bioconversion of vanillic acid to vanillin using filamentous fungi” (Institut National De La Recherche Agronomique-I.N.R.A., priority 1994, dated 1999):

Legend:
fungi = assay: toxicity of ferulic acid, vanillic acid and vanillin to the fungi; format: cell-based, filamentous fungi; details: for concentration toxic to the fungi: concentration in the culture
[1] = binding of produced vanillin to XAD2 resin in Phanerochaete chrysosporium culture (experiment 2); format: physicochemical; details: experiment 2, XAD2 10% (weight/volume), 6 days of growth
Experimental: The strain used is the Phanerochaete chrysosporium strain MIC 247, deposited on 31st Aug. 1994 with the Collection Nationale de Culture de Microorganismes under the number I-1471. This strain was cultured as described in Example 1 above.
Vanillic acid was added sequentially, namely: 0.3 g/l at the end of 3 days of culture, then 0.3 g/l every day.
For experiment 2, sterile resin XAD2 (Amberlite) is added in the proportion of 10% (weight/volume) after 3 days+6 h of culture of the fungus, that is to say 6 h after adding vanillic acid (at a concentration of 300 mg/l).
Vanillic acid and its metabolites are assayed as described in Example 1 above.

[2] = binding of vanillin by nonionic resin XAD2; format: physicochemical

Compound	concentration toxic to the fungi (fungi)	vanillin produced that has been bound to the resin [1]	toxicity for the metabolism of the fungus (in words) (fungi; strain that accumulates vanillin (Nidulariales))	vanillin bound by the resin [2]
COc1cc(/C=C/C(=O)O)ccc1O [ferulic acid]	above 2 g/l	–	–	–
COc1cc(C(=O)O)ccc1O [vanillic acid]	above 2 g/l	–	–	–
COc1cc(C=O)ccc1O [vanillin]	above 2 g/l	94%	very quickly becomes toxic for the metabolism of the fungus	98%
